The text below walks through data of patent US11548868B2, “Heterocyclic compounds, compositions comprising heterocyclic compound, and methods of use thereof” (JS INNOPHARM (SHANGHAI) LTD, priority 2017, dated 2023).

Each structure is given as a SMILES string.

For experiment [1], the target named is T1, TDO2 in A172 cancer cells (Homo sapiens, UniProt P48775).
T1 construct: endogenous in cells; host or cells: A172 cancer cells
In words: TDO2 Cellular Assay (kynurenine production in A172 cancer cells). The following applies: L-Trp 1 mM, 24 hours incubation, kynurenine at 490 nm. Format: cell-based. In a few lines:
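A172 cells seeded overnight, then given 1 mM L-Trp and test compound (0–25 μM, 0.25% DMSO) for 24 h at 37 °C. Supernatant treated with TCA at 50 °C to convert N-formylkynurenine, kynurenine detected with p-dimethylaminobenzaldehyde at 490 nm; IC50 by non-linear regression of inhibition versus DMSO control.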

The target in experiment [2] is T2, IDO1 in Hela cancer cells (Homo sapiens, UniProt P14902).
T2 construct: endogenous in cells; host or cells: Hela cancer cells stimulated with human IFN-γ
Description: IDO1 Cellular Assay (kynurenine production in IFN-γ stimulated Hela cancer cells). It counts as cell-based. The settings on record: human IFN-γ 50 ng/mL, 48 hours incubation, kynurenine at 490 nm. The essentials:
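HeLa cells stimulated with 50 ng/mL IFN-γ (final) and treated 48 h with compound (0–25 μM final, 0.25% DMSO). Supernatant kynurenine measured after TCA hydrolysis and p-dimethylaminobenzaldehyde reaction at 490 nm; inhibition vs DMSO control, IC50 by non-linear regression.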

In experiment [3] the target is Recombinant human TDO2 (Homo sapiens, UniProt P48775). In words: TDO2 Enzymatic Assay. It counts as biochemical. The settings on record: recombinant human TDO2 200 nM, L-tryptophan 300 μM, 40 min room temperature, N′-formylkynurenine absorbance 321 nm; read-out: TDO2 bichemical activity*. The method, then:
(§1) The TDO2 biochemical inhibitory activity is determined by measuring the decrease in N′-formylkynurenine from tryptophan catalyzed by TDO2 enzyme. Recombinant human TDO2 (200 nM), L-tryptophan (300 μM), L-ascorbic acid (20 mM), methylene Blue (20 μM), catalase (0.2 mg/mL), and serial dilutions of the test compounds in a total volume of […] containing DMSO (with final DMSO concentration of 0.5%) and a pH 7.5 buffer containing potassium phosphate (50 mM) were added into each well in a 96-well plate. After incubation at room temperature for 40 min, the absorbance of the reaction mixture was read at 321 nm to measure the formation of N′-formylkynurenine by SpectraMax microplate reader. Percent inhibition of the test compounds was determined by measuring the decrease in N′-formylkynurenine as compared to the control of DMSO vehicle, which was calculated by formula of (WC-WT)/WC, where WC is the mean absorbance of the control well minus blank well; WT is the mean absorbance of the test well minus the blank well. Data was analyzed by GraphPad Prism 5 and the IC50 values were obtained by non-linear regression.
The IC50 values of TDO2 biochemical activity for the examples disclosed herein are listed in Table 2, A: ≤0.1 μM; B: >0.10 μM and ≤0.5 μM; C: >0.5 μM and ≤1.0 μM; and D: >1.0 μM.

Experiment [4] addresses Recombinant human IDO1 (Homo sapiens, UniProt P14902). Description: IDO1 Enzymatic Assay. The following applies: recombinant human IDO1 40 nM, L-tryptophan 100 μM, 40 min room temperature, N′-formylkynurenine absorbance 321 nm; read-out: IDO1 biochemical activity*. As to the method:
as §1, with “IDO1” for “TDO2”, “IDO1 (40” for “TDO2 (200”, “(100” for “(300”, “(WC−WT)/WC,” for “(WC-WT)/WC,”
The IC50 values of IDO1 biochemical activity for the examples disclosed herein are listed in Table 2, A: ≤0.1 μM; B: >0.10 μM and ≤0.5 μM; C: >0.5 μM and ≤1.0 μM; and D: >1.0 μM.

T1 sequence (P48775 whole entry): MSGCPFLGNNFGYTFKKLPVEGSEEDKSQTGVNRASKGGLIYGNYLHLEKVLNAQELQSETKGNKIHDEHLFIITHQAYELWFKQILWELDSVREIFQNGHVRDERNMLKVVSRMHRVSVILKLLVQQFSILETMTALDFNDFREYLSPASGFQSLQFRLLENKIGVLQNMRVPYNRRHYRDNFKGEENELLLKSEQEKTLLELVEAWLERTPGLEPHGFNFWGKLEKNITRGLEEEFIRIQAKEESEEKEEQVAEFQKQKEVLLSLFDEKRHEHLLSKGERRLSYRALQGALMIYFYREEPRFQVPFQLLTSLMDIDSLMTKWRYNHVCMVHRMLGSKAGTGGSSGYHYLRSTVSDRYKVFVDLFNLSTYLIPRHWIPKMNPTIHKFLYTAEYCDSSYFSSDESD
Chain of Recombinant human TDO2 (P48775 whole entry): as above
Chain of Recombinant human IDO1 (P14902 whole entry): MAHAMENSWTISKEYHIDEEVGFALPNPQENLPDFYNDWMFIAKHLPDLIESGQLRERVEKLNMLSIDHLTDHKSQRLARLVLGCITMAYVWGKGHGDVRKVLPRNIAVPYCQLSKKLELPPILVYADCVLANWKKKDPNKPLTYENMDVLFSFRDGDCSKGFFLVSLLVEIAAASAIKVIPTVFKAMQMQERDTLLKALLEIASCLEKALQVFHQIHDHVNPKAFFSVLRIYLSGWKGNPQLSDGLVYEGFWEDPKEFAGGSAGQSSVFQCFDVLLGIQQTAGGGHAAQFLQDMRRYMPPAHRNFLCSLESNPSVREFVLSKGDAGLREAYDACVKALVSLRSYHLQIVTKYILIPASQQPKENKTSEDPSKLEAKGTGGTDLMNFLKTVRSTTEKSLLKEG
T2 sequence (P14902 whole entry): as above

With `CC1(C)C2CN(c3cc(Cl)cc4[nH]ncc34)CC2CN1S(C)(=O)=O` (single isomer, unassigned) [Example 1b], the IC50 in experiment [1] was ≤ 500 nM; in experiment [2], > 5000 nM; in experiment [3], ≤ 100 nM; in experiment [4], 100 to 500 nM.
Consider `CS(=O)(=O)N1C[C@@H]2C[C@@](O)(c3cc(Cl)cc4[nH]ncc34)C[C@@H]2C1` [Example 2, (3aR,5r,6aS)-5-(6-chloro-1H-indazol-4-yl)-2-(methylsulfonyl)octahydrocyclopenta[c]pyrrol-5-ol], for which the IC50 is ≤ 500 nM in experiment [1], 500 to 1000 nM in experiment [2], ≤ 100 nM in experiment [3] and 100 to 500 nM in experiment [4].
In the same order, the values of `CC(=O)N1C[C@@H]2C[C@@](O)(c3cc(Cl)cc4[nH]ncc34)C[C@@H]2C1` [Example 22, 1-((3aR,5r,6aS)-5-(6-chloro-1H-indazol-4-yl)-5-hydroxyhexahydrocyclopenta[c]pyrrol-2(1H)-yl)ethanone] are ≤ 500 nM, > 5000 nM, ≤ 100 nM and > 1000 nM.
In the same order, the values of `O[C@@]1(c2cc(Cl)cc3[nH]ncc23)C[C@H]2C[C@H]2C1` [Example 25, (1R,3r,5S)-3-(6-chloro-1H-indazol-4-yl)bicyclo[3.1.0]hexan-3-ol] are ≤ 500 nM, 1000 to 5000 nM, ≤ 100 nM and 500 to 1000 nM.
